{"source": "ChEMBL document CHEMBL5696442", "about": "“Discovery of type II inhibitors of TGFβ-activated kinase 1 (TAK1) and mitogen-activated protein kinase kinase kinase kinase 2 (MAP4K2)” (J Med Chem, 2015)", "key": {"[1]": {"molecular_target": "T1, Phosphatidylinositol 5-phosphate 4-kinase type-2 gamma (Homo sapiens) (UniProt Q8TBX8)", "T1 sequence (whole entry)": "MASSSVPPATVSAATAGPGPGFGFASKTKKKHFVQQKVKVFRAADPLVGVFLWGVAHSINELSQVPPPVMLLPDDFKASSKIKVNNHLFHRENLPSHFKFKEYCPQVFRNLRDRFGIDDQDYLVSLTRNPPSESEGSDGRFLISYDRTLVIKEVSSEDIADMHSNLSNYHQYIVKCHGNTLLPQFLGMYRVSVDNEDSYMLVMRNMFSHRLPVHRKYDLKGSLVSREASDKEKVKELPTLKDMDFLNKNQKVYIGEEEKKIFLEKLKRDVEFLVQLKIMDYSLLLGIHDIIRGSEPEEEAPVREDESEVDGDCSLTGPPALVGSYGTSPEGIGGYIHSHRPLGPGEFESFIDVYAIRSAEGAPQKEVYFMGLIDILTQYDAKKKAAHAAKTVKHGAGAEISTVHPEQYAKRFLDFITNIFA", "assay": "Inhibition of PIP4K2C ATP labeling site harbouring VKELPTLKDMDFLNK in human Huh-7 cells at 1 uM by KiNativ Profiling analysis relative to control", "format": "cell-based"}, "[2]": {"molecular_target": "Calcium/calmodulin-dependent protein kinase type II subunit gamma (Homo sapiens) (UniProt Q13555)", "sequence (Q13555 whole entry)": "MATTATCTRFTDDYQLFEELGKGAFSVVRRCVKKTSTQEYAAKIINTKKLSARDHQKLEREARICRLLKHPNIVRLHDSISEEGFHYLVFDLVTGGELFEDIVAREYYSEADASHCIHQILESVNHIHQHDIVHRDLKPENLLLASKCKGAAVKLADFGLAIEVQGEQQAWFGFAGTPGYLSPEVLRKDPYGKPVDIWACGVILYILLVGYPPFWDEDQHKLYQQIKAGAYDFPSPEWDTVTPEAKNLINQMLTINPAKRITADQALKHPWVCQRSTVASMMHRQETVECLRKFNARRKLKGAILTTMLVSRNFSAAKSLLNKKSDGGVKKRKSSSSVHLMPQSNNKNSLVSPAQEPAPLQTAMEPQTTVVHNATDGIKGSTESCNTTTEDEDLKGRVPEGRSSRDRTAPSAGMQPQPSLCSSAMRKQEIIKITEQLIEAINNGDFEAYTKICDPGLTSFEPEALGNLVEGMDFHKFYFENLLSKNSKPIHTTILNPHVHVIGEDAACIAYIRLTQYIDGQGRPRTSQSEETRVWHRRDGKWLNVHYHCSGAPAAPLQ", "assay": "Inhibition of CaMK2g Lys1 labeling site harbouring KTSTQEYAAKIINTK in human Huh-7 cells at 1 uM by KiNativ Profiling analysis relative to control", "format": "cell-based"}, "[3]": {"molecular_target": "Dual specificity mitogen-activated protein kinase kinase 1 (Homo sapiens) (UniProt Q02750)", "sequence (Q02750 whole entry)": "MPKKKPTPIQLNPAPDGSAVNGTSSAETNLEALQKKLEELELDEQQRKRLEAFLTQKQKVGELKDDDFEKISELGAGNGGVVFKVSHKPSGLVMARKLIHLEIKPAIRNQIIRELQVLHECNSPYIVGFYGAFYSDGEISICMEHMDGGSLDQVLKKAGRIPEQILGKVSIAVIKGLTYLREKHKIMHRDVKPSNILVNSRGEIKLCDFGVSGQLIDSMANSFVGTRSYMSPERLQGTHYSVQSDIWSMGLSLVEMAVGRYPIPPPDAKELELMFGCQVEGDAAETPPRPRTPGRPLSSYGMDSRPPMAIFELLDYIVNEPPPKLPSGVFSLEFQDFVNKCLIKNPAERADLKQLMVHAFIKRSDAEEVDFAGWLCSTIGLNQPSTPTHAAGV", "assay": "Inhibition of MAP2K1 Lys2 labeling site harbouring IMHRDVKPSNILVNSR in human Huh-7 cells at 1 uM by KiNativ Profiling analysis relative to control", "format": "cell-based"}, "[4]": {"molecular_target": "Serine/threonine-protein kinase 16 (Homo sapiens) (UniProt O75716)", "sequence (O75716 whole entry)": "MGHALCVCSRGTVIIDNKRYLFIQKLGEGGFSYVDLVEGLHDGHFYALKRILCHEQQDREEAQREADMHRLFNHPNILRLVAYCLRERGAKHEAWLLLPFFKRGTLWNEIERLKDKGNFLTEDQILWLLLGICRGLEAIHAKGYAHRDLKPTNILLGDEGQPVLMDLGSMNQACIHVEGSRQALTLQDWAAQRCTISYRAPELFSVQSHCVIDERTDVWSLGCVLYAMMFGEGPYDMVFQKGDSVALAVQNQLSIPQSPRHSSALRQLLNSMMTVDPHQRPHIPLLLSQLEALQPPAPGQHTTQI", "assay": "Inhibition of MPSK1 K2 labeling site in human Huh-7 cells at 1 uM by KiNativ Profiling analysis relative to control", "format": "cell-based"}, "[5]": {"molecular_target": "Calcium/calmodulin-dependent protein kinase type II subunit alpha (Homo sapiens) (UniProt Q9UQM7)", "sequence (Q9UQM7 whole entry)": "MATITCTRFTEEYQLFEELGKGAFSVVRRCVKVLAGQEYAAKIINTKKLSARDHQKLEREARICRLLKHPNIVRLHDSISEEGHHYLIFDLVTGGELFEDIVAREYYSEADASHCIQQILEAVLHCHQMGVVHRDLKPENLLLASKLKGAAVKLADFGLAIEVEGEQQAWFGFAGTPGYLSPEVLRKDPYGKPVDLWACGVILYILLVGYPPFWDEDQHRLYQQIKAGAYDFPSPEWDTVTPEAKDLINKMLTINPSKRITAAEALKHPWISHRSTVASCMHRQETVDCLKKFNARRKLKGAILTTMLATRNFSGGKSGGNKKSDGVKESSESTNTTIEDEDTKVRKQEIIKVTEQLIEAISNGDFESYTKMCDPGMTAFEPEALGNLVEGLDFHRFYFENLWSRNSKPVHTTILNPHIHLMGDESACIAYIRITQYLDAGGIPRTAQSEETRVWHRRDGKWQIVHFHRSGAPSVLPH", "assay": "Inhibition of CAMK2a K2 labeling site in human Huh-7 cells at 1 uM by KiNativ Profiling analysis relative to control", "format": "cell-based"}, "[6]": {"molecular_target": "Ribosomal protein S6 kinase alpha-4 (Homo sapiens) (UniProt O75676)", "assay": "Inhibition of C-terminal RPS6KA4 kinase domain 2 (unknown origin) at 10 uM by Ambit Kinomescan binding assay; values are per cent of control"}, "[7]": {"molecular_target": "Calcium/calmodulin-dependent protein kinase type 1D (Homo sapiens) (UniProt Q8IU85)", "sequence (Q8IU85 whole entry, looked up)": "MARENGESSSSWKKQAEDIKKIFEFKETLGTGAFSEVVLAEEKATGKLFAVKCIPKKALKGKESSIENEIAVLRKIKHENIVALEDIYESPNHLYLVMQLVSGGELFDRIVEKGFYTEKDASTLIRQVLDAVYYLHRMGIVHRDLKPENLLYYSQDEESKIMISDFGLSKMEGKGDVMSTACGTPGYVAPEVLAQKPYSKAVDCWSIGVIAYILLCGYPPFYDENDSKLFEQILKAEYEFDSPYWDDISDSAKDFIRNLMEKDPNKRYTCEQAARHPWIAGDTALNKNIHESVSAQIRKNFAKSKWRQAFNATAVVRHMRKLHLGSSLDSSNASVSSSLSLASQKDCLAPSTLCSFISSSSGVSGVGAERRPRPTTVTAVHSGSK", "assay": "Inhibition of CAMK1D (unknown origin) at 10 uM by Ambit Kinomescan binding assay relative to control"}, "[8]": {"molecular_target": "T2, Ephrin type-B receptor 2 (Homo sapiens) (UniProt P29323)", "T2 sequence (whole entry)": "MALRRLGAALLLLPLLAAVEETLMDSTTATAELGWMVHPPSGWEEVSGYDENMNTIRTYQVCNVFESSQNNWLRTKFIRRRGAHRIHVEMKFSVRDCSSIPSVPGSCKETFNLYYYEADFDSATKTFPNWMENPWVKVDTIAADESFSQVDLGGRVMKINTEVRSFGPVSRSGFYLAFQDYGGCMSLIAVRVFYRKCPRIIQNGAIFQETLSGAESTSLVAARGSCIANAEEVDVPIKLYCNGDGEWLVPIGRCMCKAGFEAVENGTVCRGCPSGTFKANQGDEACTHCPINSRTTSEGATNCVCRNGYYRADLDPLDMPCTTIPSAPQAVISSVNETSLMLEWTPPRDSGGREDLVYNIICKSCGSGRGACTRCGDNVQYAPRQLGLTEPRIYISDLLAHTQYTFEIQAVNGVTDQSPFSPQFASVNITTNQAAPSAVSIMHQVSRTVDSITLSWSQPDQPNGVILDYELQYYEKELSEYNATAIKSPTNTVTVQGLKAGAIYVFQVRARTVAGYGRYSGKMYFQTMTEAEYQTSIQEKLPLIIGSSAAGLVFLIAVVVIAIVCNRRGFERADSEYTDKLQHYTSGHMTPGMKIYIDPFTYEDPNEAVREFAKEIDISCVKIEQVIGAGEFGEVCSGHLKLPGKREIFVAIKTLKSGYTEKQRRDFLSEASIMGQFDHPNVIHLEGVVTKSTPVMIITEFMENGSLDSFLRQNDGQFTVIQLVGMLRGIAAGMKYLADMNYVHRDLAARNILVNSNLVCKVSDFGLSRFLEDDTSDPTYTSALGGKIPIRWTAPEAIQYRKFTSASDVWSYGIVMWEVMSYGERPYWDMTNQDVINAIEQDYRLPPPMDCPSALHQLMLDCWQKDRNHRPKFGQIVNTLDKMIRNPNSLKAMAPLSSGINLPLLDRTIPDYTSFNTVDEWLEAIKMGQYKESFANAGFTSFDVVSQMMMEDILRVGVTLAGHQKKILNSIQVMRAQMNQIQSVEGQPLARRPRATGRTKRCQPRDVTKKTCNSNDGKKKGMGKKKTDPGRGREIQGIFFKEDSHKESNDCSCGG", "assay": "Inhibition of EPHB2 (unknown origin) at 10 uM by Ambit Kinomescan binding assay relative to control"}, "[9]": {"molecular_target": "DNA-dependent protein kinase catalytic subunit (Homo sapiens) (UniProt P78527)", "assay": "Inhibition of PRKDC ATP labeling site harbouring EHPFLVKGGEDLR in human Huh-7 cells at 1 uM by KiNativ Profiling analysis relative to control", "format": "cell-based"}, "[10]": {"molecular_target": "Dual specificity mitogen-activated protein kinase kinase 2 (Homo sapiens) (UniProt P36507)", "sequence (P36507 whole entry)": "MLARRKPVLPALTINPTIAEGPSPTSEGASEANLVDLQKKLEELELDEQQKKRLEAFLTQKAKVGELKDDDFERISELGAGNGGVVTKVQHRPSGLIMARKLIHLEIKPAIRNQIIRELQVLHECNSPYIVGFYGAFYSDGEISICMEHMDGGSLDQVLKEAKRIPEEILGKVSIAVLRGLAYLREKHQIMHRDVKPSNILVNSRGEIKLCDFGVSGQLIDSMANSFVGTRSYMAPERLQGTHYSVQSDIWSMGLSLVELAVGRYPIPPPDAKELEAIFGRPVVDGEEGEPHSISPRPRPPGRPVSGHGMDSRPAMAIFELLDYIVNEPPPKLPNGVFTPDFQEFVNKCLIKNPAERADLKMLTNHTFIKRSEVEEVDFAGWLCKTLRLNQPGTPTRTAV", "assay": "Inhibition of MAP2K2 Lys1 labeling site in human A-375 cells at 5 uM by KiNativ Profiling analysis relative to control", "format": "cell-based"}, "[11]": {"molecular_target": "Wee1-like protein kinase (Homo sapiens) (UniProt P30291)", "sequence (P30291 whole entry, looked up)": "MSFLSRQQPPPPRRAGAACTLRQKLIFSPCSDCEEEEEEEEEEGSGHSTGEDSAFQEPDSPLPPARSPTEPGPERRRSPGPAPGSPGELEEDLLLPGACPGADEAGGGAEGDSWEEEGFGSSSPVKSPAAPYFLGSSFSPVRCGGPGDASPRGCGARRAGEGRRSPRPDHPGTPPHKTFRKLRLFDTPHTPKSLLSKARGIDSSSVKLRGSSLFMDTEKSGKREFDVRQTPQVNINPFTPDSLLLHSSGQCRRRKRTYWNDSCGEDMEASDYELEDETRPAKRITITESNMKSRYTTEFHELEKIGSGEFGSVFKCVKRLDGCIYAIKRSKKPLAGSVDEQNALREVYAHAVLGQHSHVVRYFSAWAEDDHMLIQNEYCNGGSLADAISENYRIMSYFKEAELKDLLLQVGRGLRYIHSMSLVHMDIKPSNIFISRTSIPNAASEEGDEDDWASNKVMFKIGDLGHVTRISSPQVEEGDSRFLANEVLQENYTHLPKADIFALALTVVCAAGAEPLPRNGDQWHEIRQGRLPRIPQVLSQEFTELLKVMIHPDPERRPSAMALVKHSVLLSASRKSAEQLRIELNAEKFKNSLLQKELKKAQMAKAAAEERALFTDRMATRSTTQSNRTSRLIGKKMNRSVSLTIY", "assay": "Inhibition of Wee1 Lys2 labeling site in human A-375 cells at 0.05 uM by KiNativ Profiling analysis relative to control", "format": "cell-based"}, "[12]": {"tested_on": "Serine/threonine-protein kinase B-raf (Homo sapiens), P15056 [V600E]", "sequence (P15056 whole entry V600E)": "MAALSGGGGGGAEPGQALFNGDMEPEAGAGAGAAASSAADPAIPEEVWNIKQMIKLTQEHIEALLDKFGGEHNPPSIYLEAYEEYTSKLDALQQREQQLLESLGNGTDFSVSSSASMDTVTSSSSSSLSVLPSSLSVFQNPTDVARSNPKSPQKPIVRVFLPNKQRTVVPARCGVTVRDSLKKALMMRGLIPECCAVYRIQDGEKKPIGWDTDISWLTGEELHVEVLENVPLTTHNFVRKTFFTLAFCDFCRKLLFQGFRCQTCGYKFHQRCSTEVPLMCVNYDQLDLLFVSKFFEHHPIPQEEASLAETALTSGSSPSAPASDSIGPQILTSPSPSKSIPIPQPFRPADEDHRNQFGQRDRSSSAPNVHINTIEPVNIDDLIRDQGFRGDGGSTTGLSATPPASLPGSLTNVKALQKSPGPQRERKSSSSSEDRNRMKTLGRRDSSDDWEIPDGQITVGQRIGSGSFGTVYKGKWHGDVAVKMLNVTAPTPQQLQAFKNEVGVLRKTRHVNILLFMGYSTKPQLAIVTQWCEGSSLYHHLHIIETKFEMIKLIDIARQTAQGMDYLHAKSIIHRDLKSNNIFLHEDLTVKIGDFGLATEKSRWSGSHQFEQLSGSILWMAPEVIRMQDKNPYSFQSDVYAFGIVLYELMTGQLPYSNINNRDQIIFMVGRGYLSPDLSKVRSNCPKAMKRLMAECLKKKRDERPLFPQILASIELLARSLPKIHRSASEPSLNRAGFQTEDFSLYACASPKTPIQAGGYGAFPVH", "assay": "Inhibition of BRAF V600E mutant (unknown origin) at 1 uM by Ambit Kinomescan binding assay relative to control"}, "[13]": {"molecular_target": "Serine/threonine-protein kinase DCLK1 (Homo sapiens) (UniProt O15075)", "sequence (O15075 whole entry)": "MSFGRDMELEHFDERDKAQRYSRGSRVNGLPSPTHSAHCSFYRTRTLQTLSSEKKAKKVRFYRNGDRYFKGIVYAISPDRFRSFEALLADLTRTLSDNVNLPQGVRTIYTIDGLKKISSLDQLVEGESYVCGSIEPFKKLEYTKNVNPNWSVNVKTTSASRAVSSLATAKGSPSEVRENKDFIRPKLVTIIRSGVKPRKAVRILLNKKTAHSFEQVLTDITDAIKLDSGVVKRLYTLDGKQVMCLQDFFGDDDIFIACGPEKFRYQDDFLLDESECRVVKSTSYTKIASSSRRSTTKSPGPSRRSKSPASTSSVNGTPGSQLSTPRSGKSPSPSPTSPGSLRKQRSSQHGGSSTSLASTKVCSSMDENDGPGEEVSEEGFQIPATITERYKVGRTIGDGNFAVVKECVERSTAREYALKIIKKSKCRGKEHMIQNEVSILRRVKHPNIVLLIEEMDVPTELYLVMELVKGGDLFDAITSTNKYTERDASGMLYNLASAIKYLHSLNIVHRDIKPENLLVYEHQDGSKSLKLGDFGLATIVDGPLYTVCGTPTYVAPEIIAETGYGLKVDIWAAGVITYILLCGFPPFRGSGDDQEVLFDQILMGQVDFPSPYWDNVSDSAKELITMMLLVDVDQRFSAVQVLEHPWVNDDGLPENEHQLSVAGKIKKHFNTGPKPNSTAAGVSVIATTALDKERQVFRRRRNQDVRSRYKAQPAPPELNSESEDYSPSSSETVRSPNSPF", "assay": "Inhibition of DCAMKL1 (unknown origin) at 1 uM by Ambit Kinomescan binding assay relative to control"}}, "data": [{"smiles": "CNc1cc(Oc2cc(C(=O)Nc3cc(N4CCN(C)CC4)cc(C(F)(F)F)c3)ccc2C)ncn1", "values": [{"measurement": "inhibition", "setting": "[1]", "value": 5.4, "unit": "%"}, {"measurement": "inhibition", "setting": "[2]", "value": 24.3, "unit": "%"}, {"measurement": "inhibition", "setting": "[3]", "value": 16.6, "unit": "%"}]}, {"smiles": "CCN1CCN(Cc2ccc(NC(=O)c3ccc(C)c(Oc4ccnc5[nH]ccc45)c3)cc2C(F)(F)F)CC1", "values": [{"measurement": "inhibition", "setting": "[4]", "value": 6.7, "unit": "%"}, {"measurement": "inhibition", "setting": "[5]", "value": 5.8, "unit": "%"}, {"measurement": "percent of control", "setting": "[6]", "value": 4.7, "unit": "%"}, {"measurement": "inhibition", "setting": "[7]", "value": 6.2, "unit": "%"}, {"measurement": "inhibition", "setting": "[8]", "value": 11, "unit": "%"}, {"measurement": "inhibition", "setting": "[9]", "value": 1.4, "unit": "%"}, {"measurement": "inhibition", "setting": "[10]", "value": 1.3, "unit": "%"}]}, {"smiles": "CCN1CCN(Cc2ccc(NC(=O)c3ccc(C)c(/C=C/c4cnc5[nH]ccc5c4OC)c3)cc2C(F)(F)F)CC1", "values": [{"measurement": "inhibition", "setting": "[11]", "value": 19.2, "unit": "%"}, {"measurement": "inhibition", "setting": "[12]", "value": 7.4, "unit": "%"}, {"measurement": "inhibition", "setting": "[13]", "value": 100, "unit": "%"}]}]}
